Measurements published in patent US11445724B2, “Insecticidal compounds” (SYNGENTA PARTICIPATIONS AG, priority 2013, dated 2022).

Columns and labels:
Format in all cases: in vivo
[1] = test system: Plutella xylostella (Diamond back moth); test: Plutella xylostella (Diamond back moth) larval mortality, artificial diet in 24-well MTP; conditions: 144 h, application rate 200 ppm (concentration in well 18 ppm), L2 larvae, larval mortality after 6 days
[2] = test system: Myzus persicae (Green peach aphid); test: Myzus persicae (Green peach aphid) mortality, test compounds mixed with Sucrose solution under Parafilm; conditions: 120 h, 12.5 ppm in Sucrose solution, infested pea seedlings on Parafilm, mortality 5 days after infestation
[3] = test system: Diabrotica balteata (Corn root worm); test: Diabrotica balteata (Corn root worm) larval mortality, artificial diet in 24-well MTP; conditions: 120 h, application rate 200 ppm (concentration in well 18 ppm), L2 larvae, larval mortality after 5 days
[4] = test system: Thrips tabaci (Onion thrips); test: Thrips tabaci (Onion thrips) mortality, sprayed sunflower leaf discs; conditions: foliar, 168 h, 200 ppm spray on sunflower leaf discs, mixed ages, mortality after 7 days
[5] = test system: Spodoptera littoralis (Egyptian cotton leafworm); test: Spodoptera littoralis (Egyptian cotton leafworm) mortality, sprayed cotton leaf discs; conditions: foliar, 72 h, 200 ppm spray on cotton leaf discs, L1 larvae, mortality 3 DAT
[6] = test system: Myzus persicae (Green peach aphid); test: Myzus persicae (Green peach aphid) mortality, sprayed sunflower leaf discs; conditions: foliar, 144 h, 200 ppm spray on sunflower leaf discs, mixed ages, mortality 6 DAT

COc1c(NC(=O)c2ccccc2F)cccc1C(=O)Nc1c(Br)cc(C(F)(C(F)(F)F)C(F)(F)F)cc1OC(F)F [Compound 33]
≥ 80%: pest or weed control at 200 ppm [1] | pest or weed control at 12.5 ppm [2] | pest or weed control at 200 ppm [3] | pest or weed control at 200 ppm [4] | pest or weed control at 200 ppm [5]

COc1c(NC(=O)c2ccc(C)cc2)cccc1C(=O)Nc1c(Br)cc(C(F)(C(F)(F)F)C(F)(F)F)cc1OC(F)F [Compound 41]
≥ 80%: pest or weed control at 200 ppm [1] | pest or weed control at 200 ppm [6] | pest or weed control at 12.5 ppm [2] | pest or weed control at 200 ppm [3] | pest or weed control at 200 ppm [4] | pest or weed control at 200 ppm [5]

O=C(Nc1cccc(C(=O)Nc2c(Cl)cc(C(F)(C(F)(F)F)C(F)(F)F)cc2OC(F)F)c1F)c1ccccc1F [Compound 45]
≥ 80%: pest or weed control at 200 ppm [1] | pest or weed control at 200 ppm [6] | pest or weed control at 12.5 ppm [2] | pest or weed control at 200 ppm [3] | pest or weed control at 200 ppm [4] | pest or weed control at 200 ppm [5]

COc1c(NC(=O)c2ccccc2OC(F)(F)F)cccc1C(=O)Nc1c(Br)cc(C(F)(C(F)(F)F)C(F)(F)F)cc1OC(F)F [Compound 56]
≥ 80%: pest or weed control at 200 ppm [1] | pest or weed control at 200 ppm [6] | pest or weed control at 12.5 ppm [2] | pest or weed control at 200 ppm [3] | pest or weed control at 200 ppm [4] | pest or weed control at 200 ppm [5]

CCN(C(=O)c1cc(Cl)ccc1F)c1cccc(C(=O)Nc2c(Br)cc(C(F)(C(F)(F)F)C(F)(F)F)cc2OC(F)F)c1F [Compound 104]
≥ 80%: pest or weed control at 200 ppm [1] | pest or weed control at 12.5 ppm [2] | pest or weed control at 200 ppm [3] | pest or weed control at 200 ppm [4] | pest or weed control at 200 ppm [5]

CCN(C(=O)c1ccc(C(F)(F)F)cc1)c1cccc(C(=O)Nc2c(Br)cc(C(F)(C(F)(F)F)C(F)(F)F)cc2OC(F)F)c1F [Compound 105]
≥ 80%: pest or weed control at 200 ppm [1] | pest or weed control at 200 ppm [6] | pest or weed control at 12.5 ppm [2] | pest or weed control at 200 ppm [3] | pest or weed control at 200 ppm [4] | pest or weed control at 200 ppm [5]

CCN(C(=O)c1cc(C(F)(F)F)ccc1F)c1cccc(C(=O)Nc2c(Br)cc(C(F)(C(F)(F)F)C(F)(F)F)cc2OC(F)F)c1F [Compound 110]
≥ 80%: pest or weed control at 200 ppm [1] | pest or weed control at 12.5 ppm [2] | pest or weed control at 200 ppm [3] | pest or weed control at 200 ppm [4] | pest or weed control at 200 ppm [5]

CCN(C(=O)c1ccccc1F)c1cccc(C(=O)Nc2c(Cl)cc(C(F)(C(F)(F)F)C(F)(F)F)cc2OC(F)F)c1F [Compound 111]
≥ 80%: pest or weed control at 200 ppm [1] | pest or weed control at 200 ppm [6] | pest or weed control at 12.5 ppm [2] | pest or weed control at 200 ppm [3] | pest or weed control at 200 ppm [4] | pest or weed control at 200 ppm [5]

CCN(C(=O)c1ccc([N+](=O)[O-])cc1)c1cccc(C(=O)Nc2c(Cl)cc(C(F)(C(F)(F)F)C(F)(F)F)cc2OC(F)F)c1F [Compound 113]
≥ 80%: pest or weed control at 200 ppm [1] | pest or weed control at 12.5 ppm [2] | pest or weed control at 200 ppm [3] | pest or weed control at 200 ppm [5]

CCN(C(=O)c1ccc(C)cc1)c1cccc(C(=O)Nc2c(Cl)cc(C(F)(C(F)(F)F)C(F)(F)F)cc2OC(F)F)c1F [Compound 114]
≥ 80%: pest or weed control at 200 ppm [1] | pest or weed control at 12.5 ppm [2] | pest or weed control at 200 ppm [3] | pest or weed control at 200 ppm [4] | pest or weed control at 200 ppm [5]

CCN(C(=O)c1cc(Cl)ccc1F)c1cccc(C(=O)Nc2c(Cl)cc(C(F)(C(F)(F)F)C(F)(F)F)cc2OC(F)F)c1F [Compound 115]
≥ 80%: pest or weed control at 200 ppm [1] | pest or weed control at 12.5 ppm [2] | pest or weed control at 200 ppm [3] | pest or weed control at 200 ppm [4] | pest or weed control at 200 ppm [5]

CCN(C(=O)c1ccc([N+](=O)[O-])cc1Cl)c1cccc(C(=O)Nc2c(Cl)cc(C(F)(C(F)(F)F)C(F)(F)F)cc2OC(F)F)c1F [Compound 116]
≥ 80%: pest or weed control at 12.5 ppm [2] | pest or weed control at 200 ppm [3] | pest or weed control at 200 ppm [4] | pest or weed control at 200 ppm [5]

CCN(C(=O)c1ccc(C(F)(F)F)cc1)c1cccc(C(=O)Nc2c(Cl)cc(C(F)(C(F)(F)F)C(F)(F)F)cc2OC(F)F)c1F [Compound 117]
≥ 80%: pest or weed control at 200 ppm [1] | pest or weed control at 12.5 ppm [2] | pest or weed control at 200 ppm [3] | pest or weed control at 200 ppm [4] | pest or weed control at 200 ppm [5]

CCN(C(=O)c1cccc(F)c1F)c1cccc(C(=O)Nc2c(Cl)cc(C(F)(C(F)(F)F)C(F)(F)F)cc2OC(F)F)c1F [Compound 123]
≥ 80%: pest or weed control at 200 ppm [1] | pest or weed control at 200 ppm [6] | pest or weed control at 12.5 ppm [2] | pest or weed control at 200 ppm [3] | pest or weed control at 200 ppm [4] | pest or weed control at 200 ppm [5]

CCN(C(=O)c1ccccc1F)c1cccc(C(=O)Nc2c(Br)cc(C(F)(C(F)(F)F)C(F)(F)F)cc2OC(F)F)c1F [Compound 125]
≥ 80%: pest or weed control at 200 ppm [1] | pest or weed control at 200 ppm [6] | pest or weed control at 12.5 ppm [2] | pest or weed control at 200 ppm [3] | pest or weed control at 200 ppm [4] | pest or weed control at 200 ppm [5]

CCN(C(=O)c1ccccc1C)c1cccc(C(=O)Nc2c(Br)cc(C(F)(C(F)(F)F)C(F)(F)F)cc2OC(F)F)c1F [Compound 126]
≥ 80%: pest or weed control at 200 ppm [1] | pest or weed control at 12.5 ppm [2] | pest or weed control at 200 ppm [3] | pest or weed control at 200 ppm [4] | pest or weed control at 200 ppm [5]

CCN(C(=O)c1ccc(F)cc1F)c1cccc(C(=O)Nc2c(Cl)cc(C(F)(C(F)(F)F)C(F)(F)F)cc2OC(F)F)c1OC [Compound 160]
≥ 80%: pest or weed control at 200 ppm [1] | pest or weed control at 12.5 ppm [2] | pest or weed control at 200 ppm [3] | pest or weed control at 200 ppm [4] | pest or weed control at 200 ppm [5]

COc1c(C(=O)Nc2c(Br)cc(C(F)(C(F)(F)F)C(F)(F)F)cc2OC(F)F)cccc1N(C)C(=O)c1cc[n+]([O-])cc1 [Compound 183, N-[3-[[2-bromo-6-(difluoromethoxy)-4-[1,2,2,2-tetrafluoro-1-(trifluoromethyl)ethyl]phenyl]carbamoyl]-2-methoxy-phenyl]-N-methyl-1-oxido-pyridin-1-ium-4-carboxamide]
≥ 80%: pest or weed control at 12.5 ppm [2] | pest or weed control at 200 ppm [3]
